Assays:
E. coli = experiment: Double dilution test; format: cell-based
From the text: (§1) The double dilution test is a MIC measurement test made on successive dilutions of the 2 products of the composition. […] The summary table expresses for each strain and for each dilution of the booster the measured antibiotic MIC.
(§2) The code enabling the results to be interpreted is the following one: no sign “^+” if the MIC is equivalent with and without booster, a sign “^+” if the value is lower with booster.

Staphylococcus [1] = experiment: Double dilution test; format: cell-based; settings: strain 8148
From the text: as §1, §2

[2] = tested on: microorganisms grown in planktonic and biofilm cultures; settings: Hendry et al, J Antimicrob Chemother 2009; cited from earlier work
Staphylococcus [3] = experiment: MIC measurement in agar solid medium (CLSI); format: cell-based
From the text: (§3) Inhibitory minimum concentration measurement tests are made in a solid agar medium according to international standards in force (CLSI M7-A9 Jan 12 standards): dispersion of the compounds to be tested in a Mueller Hinton gelose. An adaptation relating to the hydrophobicity of compounds and compositions is however necessary to disperse them in the medium: dilution of the compounds in a solvent. The compounds and compositions incorporated in the agar medium can be diluted beforehand in one or more solvents (Tween® 80 diluted with water, tween® 80 diluted with propylene, DMSO diluted with water). The strains are deposited onto the agar surface with a steers apparatus. In the examples, different dissolution methods for products are tested in parallel to circumvent the problems of water/solvent distribution coefficient of the molecules (antimicrobial and potentiator) whereas the bacteria grow only in the aqueous phase. The technical requirement will not intervene in in vivo tests. The same dilution methods can be implemented in a liquid medium (microplates and tubes). The same methodology is implemented with fungi. MIC measurement: the minimum inhibitory concentration measurement tests are made in an agar solid medium according to international standards in force (CLSI standards), according to the previously defined protocol. […] The booster contribution as compared with the MIC of the antibiotic alone is expressed in a (MIC ATB)/(MIC ATB+booster) ratio. Thereby, gains are defined: […] The tested strains are isolated from various human samples (blood, urine, pulmonary aspirates, etc.). The strains investigated in the following examples are chosen from the strains of the following table: [table] […] The MICs are measured on different strains. Then, the MIC gain is calculated on the strains belonging to the same genus. The MIC gain expresses the following ratio: […]

Escherichia coli = experiment: MIC measurement in agar solid medium (CLSI); format: cell-based
From the text: as §3

MRSA = experiment: Sepsis model, in vivo test 2; parameters: species or system CD1 mice; settings: CIN 32 mg/kg without antibiotic; subcutaneous; count at 24 h
Protocol: 200 μL of a bacterial solution (MRSA) adjusted to 5.108 UFC/ml is injected by the intravenous route (retro-orbital route) to CD1 mice. The treatment is initiated 1 h after the bacteria injection by the subcutaneous route.
At 24 h, the mice are euthanized and a bacterial count is made in the kidney.
Controls: untreated group, group receiving 32 mg/kg cineol without antibiotic (CIN), group receiving 8 mg/kg antibiotic without cineol (AMC8). • (*) p<0.05 vs control, AMC8 and CIN • (£) p<0.05 vs control and CIN • ($) p<0.05 vs control, AMC8, CIN, AMC+CIN 128, AMC+CIN 256

strains = experiment: MIC of cineol alone, strains not named; format: cell-based; settings: cineol used alone; strains of the etest example
strain 08150 = experiment: Post antibiotic effect; format: cell-based
Pseudomonas aeruginosa = experiment: MIC measurement in agar solid medium (CLSI); format: cell-based
From the text: Inhibitory minimum concentration measurement tests are made in a solid agar medium according to international standards in force (CLSI M7-A9 Jan 12 standards): dispersion of the compounds to be tested in a Mueller Hinton gelose. An adaptation relating to the hydrophobicity of compounds and compositions is however necessary to disperse them in the medium: dilution of the compounds in a solvent. The compounds and compositions incorporated in the agar medium can be diluted beforehand in one or more solvents (Tween® 80 diluted with water, tween® 80 diluted with propylene, DMSO diluted with water). The strains are deposited onto the agar surface with a steers apparatus. In the examples, different dissolution methods for products are tested in parallel to circumvent the problems of water/solvent distribution coefficient of the molecules (antimicrobial and potentiator) whereas the bacteria grow only in the aqueous phase. The technical requirement will not intervene in in vivo tests. The same dilution methods can be implemented in a liquid medium (microplates and tubes). The same methodology is implemented with fungi.
MIC measurement: the minimum inhibitory concentration measurement tests are made in an agar solid medium according to international standards in force (CLSI standards), according to the previously defined protocol. The compounds and compositions incorporated in the agar medium can be diluted beforehand in one or more solvents (Tween® 80 diluted with water—3.4 ml Tween for 9.6 ml water—, tween® 80 diluted with propylene 10-3.4 ml Tween for 9.6 ml propylene—, or DMSO diluted with water).
The booster contribution as compared with the MIC of the antibiotic alone is expressed in a (MIC ATB)/(MIC ATB+booster) ratio. Thereby, gains are defined:
MIC 50 gain=(MIC50 of the antibiotic alone)/(MIC50 (antibiotic+booster))
MIC 90 gain=(MIC90 of the antibiotic alone)/(MIC90 (antibiotic+booster))
The tested strains are isolated from various human samples (blood, urine, pulmonary aspirates, etc.). The strains investigated in the following examples are chosen from the strains of the following table: […]

MRSA 10168 = settings: mouse, in vivo
Protocol: To Balb/c mice, is injected (Sc.) the antimicrobial product or the antimicrobial+booster mixture.
At different post-injection times, the mice are euthanised, and blood sampled, heparined and centrifuged to extract plasma thereof
Antibacterial effects are measured after 24 h incubation. The successive dilutions enable the antimicrobial effect to be determined and compared with the MIC. The efficient concentration/MIC ratio is thus determined.

## CC12CCC(CC1)C(C)(C)O2 [Cineol, cineol]
E. coli; strain 8137
  MIC of cineol alone: > 2.5 µg/mL
E. coli; strain 8151
  MIC of cineol alone: > 2.5 µg/mL
E. coli; strain 8155
  MIC of cineol alone: > 2.5 µg/mL
E. coli; strain 8156
  MIC of cineol alone: > 2.5 µg/mL
E. coli; strain ATCC 25922
  MIC of cineol alone: > 2.5 µg/mL
Staphylococcus [1]
  MIC of cineol alone: > 2.5 µg/mL
[2]
  MIC of cineole: 8000 to 64000 µg/mL
Staphylococcus [3]; DMSO
  MIC 50 of cineol alone: >1%
  MIC 90 of cineol alone: >1%
Staphylococcus [3]; Tween/prop glyc
  MIC 50 of cineol alone: >1%
  MIC 90 of cineol alone: >1%
Staphylococcus [3]; Tween/water
  MIC 50 of cineol alone: >1%
  MIC 90 of cineol alone: >1%
Staphylococcus [3]; water/water
  MIC 50 of cineol alone: >1%
  MIC 90 of cineol alone: >1%
Escherichia coli; DMSO
  MIC 50 of cineol alone: >1%
  MIC 90 of cineol alone: >1%
Escherichia coli; Tween/prop glyc
  MIC 50 of cineol alone: >1%
  MIC 90 of cineol alone: >1%
Escherichia coli; Tween/water
  MIC 50 of cineol alone: >1%
  MIC 90 of cineol alone: >1%
Escherichia coli; water/water
  MIC 50 of cineol alone: >1%
  MIC 90 of cineol alone: >1%
MRSA
  Mean ± SD log10 UFC/g kidney: 6.35 ± 0.29 log10 UFC/g kidney
strains
  MIC50: > 10000 µg/mL
Strain 08150; time 0 h after 16 h contact, Cineol 4 mg/L (AC, where present, at its MIC)
  number of bacteria: 2.17E+07
Strain 08150; time 0 h after 16 h contact, Cineol 16 mg/L (AC, where present, at its MIC)
  number of bacteria: 2.20E+07
Strain 08150; time 1 h after 16 h contact, Cineol 4 mg/L (AC, where present, at its MIC)
  number of bacteria: 4.92E+07
Strain 08150; time 1 h after 16 h contact, Cineol 16 mg/L (AC, where present, at its MIC)
  number of bacteria: 3.88E+07
Strain 08150; time 2 h after 16 h contact, Cineol 4 mg/L (AC, where present, at its MIC)
  number of bacteria: 5.50E+07
Strain 08150; time 2 h after 16 h contact, Cineol 16 mg/L (AC, where present, at its MIC)
  number of bacteria: 6.40E+07
Strain 08150; time 3 h after 16 h contact, Cineol 4 mg/L (AC, where present, at its MIC)
  number of bacteria: 3.90E+08
Strain 08150; time 3 h after 16 h contact, Cineol 16 mg/L (AC, where present, at its MIC)
  number of bacteria: 2.70E+08
Strain 08150; time 4 h after 16 h contact, Cineol 4 mg/L (AC, where present, at its MIC)
  number of bacteria: 3.50E+08
Strain 08150; time 4 h after 16 h contact, Cineol 16 mg/L (AC, where present, at its MIC)
  number of bacteria: 4.20E+08
Strain 08150; time 5 h after 16 h contact, Cineol 4 mg/L (AC, where present, at its MIC)
  number of bacteria: 5.90E+08
Strain 08150; time 5 h after 16 h contact, Cineol 16 mg/L (AC, where present, at its MIC)
  number of bacteria: 5.50E+08
Strain 08150; time 6 h after 16 h contact, Cineol 4 mg/L (AC, where present, at its MIC)
  number of bacteria: 6.00E+08
Strain 08150; time 6 h after 16 h contact, Cineol 16 mg/L (AC, where present, at its MIC)
  number of bacteria: 5.90E+08
Pseudomonas aeruginosa; DMSO
  MIC 50 of cineol alone: 1%
  MIC 90 of cineol alone: 1%
Pseudomonas aeruginosa; Tween/prop glyc
  MIC 50 of cineol alone: >1%
  MIC 90 of cineol alone: >1%
Pseudomonas aeruginosa; Tween/water
  MIC 50 of cineol alone: >1%
  MIC 90 of cineol alone: >1%
Pseudomonas aeruginosa; water/water
  MIC 50 of cineol alone: >1%
  MIC 90 of cineol alone: >1%

## amoxicillin/clavulanic acid [Augmentin®]
MRSA 10168
  Time spent beyond the MIC: <4 h
